# Results reported in US7074575B2, “Use of interleukin-19 to treat ovarian cancer” (ZymoGenetics, Inc., priority 2002, dated 2006).
# B1: IL-19: interleukin-19 polypeptide, amino acid sequence SEQ ID NO:2; mature secreted form amino acid 23 (His) to 177 (Ala) (protein, listed as Homo sapiens)
# chain: MKLQCVSLWLLGTILILCSVDNHGLRRCLISTDMHHIEESFQEIKRAIQAKDTFPNVTILSTLETLQIIKPLDVCCVTKNLLAFYVDRVFKDHQEPNPKILRKISSIANSFLYMQKTLRQCQEQRQCHCRQEATNATRVIHDNYDQLEVHAAAIKSLGELDVFLAWINKNHEVMSSA
# System: Ovcar3 (ATCC #HTB-161) cells
# Assay: Ovcar3 cytotoxicity assay (MTT readout)
# Type: cell-based
# Settings: 72 hours
# Protocol: We tested IL-19 in an Ovcar3 (ATCC #HTB-161) cytoxicity assay to measure the ability of IL-19 to prevent cells from growing during normal growth conditions. We used MTT reagent (Promega, Madison, USA) as our detection and readout for this cell inhibition assay. Procedure of a cytoxicity assay: Ovcar3 Cytotoxicity Assay
# Ovcar3 (ATCC #HTB-161) cells were plated at a density of 5000 cells/100 ul/well in clear 96 well TC plates. Cells were plated in complete growth media consisting of RPMI containing 20% FBS, 0.01 mg/ml insulin, 2% HEPES, 1% Sodium Pyruvate and 1% Glutamax. Cells were incubated overnight at 37° C. in a 5% CO2 incubator.
# The following day, media was removed from the cells and replaced with 100 ul/well of appropriately diluted samples. All sample dilutions were done in complete growth media. Samples were incubated on the cells for 72 hours.
# After incubation, an MTT assay was done on the cells using the manufacturer's protocol (Promega #PAG4100). Dye solution was incubated on the cells 4 hours, followed by a 1 hour incubation with the stop solution. Absorbance was then read on the Victor II and percent inhibition was calculated from the wells containing complete growth media only.
Molecule,inhibition of growth (3 uM) [%],inhibition of growth (10 uM) [%],inhibition of growth (31 uM) [%],inhibition of growth (100 uM) [%],inhibition of growth (1 ng/ml) [%],inhibition of growth (10 ng/ml) [%],inhibition of growth (100 ng/ml) [%],inhibition of growth (1000 ng/ml) [%]
CC1=C(/C=C/C(C)=C/C=C/C(C)=C/C(=O)O)C(C)(C)CCC1 [Retnoic Acid],29,34,43,83,–,–,–,–
B1,–,–,–,–,4,9,23,52
